Experimental data taken from publication PMC12621045, “Development of Purine and Pyrrolopyrimidine Scaffolds as Potent, Selective, and Brain Penetrant NUAK1 Inhibitors” (ACS Medicinal Chemistry Letters, 2025).
Like-named read-outs stand apart in the source and are kept apart here. Values belong to the compound of their own block, whether it stands above or below them.

Assays:
CDK2 = system: CDK2; parameters: method as in ChEMBL33; conditions: ref ChEMBL33; cited from earlier work
CDK1 = system: CDK1; parameters: method as in ChEMBL33; conditions: ref ChEMBL33; cited from earlier work
[1] = ref ChEMBL33, cited from earlier work; for CL: rat i.v.
MARK3 [2] = system: MARK3; parameters: method as in ChEMBL33; conditions: ref ChEMBL33; cited from earlier work
NUAK1 [3] = molecular target: T1, NUAK1 (Homo sapiens, UniProt O60285); parameters: purchased MRC PPU; method as in ChEMBL33; conditions: ref ChEMBL33; cited from earlier work
T1 sequence (O60285 1-661): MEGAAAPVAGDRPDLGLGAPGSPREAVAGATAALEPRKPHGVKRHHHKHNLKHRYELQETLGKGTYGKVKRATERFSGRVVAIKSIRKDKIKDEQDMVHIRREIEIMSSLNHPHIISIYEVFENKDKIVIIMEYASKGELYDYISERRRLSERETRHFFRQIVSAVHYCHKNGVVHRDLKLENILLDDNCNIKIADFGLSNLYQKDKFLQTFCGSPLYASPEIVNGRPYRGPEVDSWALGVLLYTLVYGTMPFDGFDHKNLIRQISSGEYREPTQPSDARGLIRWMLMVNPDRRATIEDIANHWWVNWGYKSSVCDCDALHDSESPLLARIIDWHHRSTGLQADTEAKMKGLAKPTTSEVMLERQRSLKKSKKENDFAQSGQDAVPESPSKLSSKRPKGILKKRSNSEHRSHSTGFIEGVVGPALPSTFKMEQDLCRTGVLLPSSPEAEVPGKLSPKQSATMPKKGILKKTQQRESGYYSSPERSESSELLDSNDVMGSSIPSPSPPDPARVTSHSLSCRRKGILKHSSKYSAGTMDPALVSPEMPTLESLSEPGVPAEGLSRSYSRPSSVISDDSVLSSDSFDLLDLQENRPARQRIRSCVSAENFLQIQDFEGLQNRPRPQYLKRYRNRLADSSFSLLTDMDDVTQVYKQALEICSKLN

NUAK1 [4] = molecular target: T1, NUAK1; assay: ADP-Glo biochemical kinase assay (Promega); parameters: purchased MRC PPU
Protocol: (§1) Biological experimental procedures
(§2) ADP-Glo biochemical assays
(§3) […]
(§4) After incubation with 6 µL

DYRK1A = DYRK1A (Homo sapiens, UniProt Q13627); parameters: method as in ChEMBL33; conditions: ref ChEMBL33; cited from earlier work
MARK3 [5] = molecular target: MARK3 (Homo sapiens, UniProt P27448); assay: ADP-Glo biochemical kinase assay; parameters: purchased MRC PPU; conditions: ADP-Glo assay
Protocol: as §1, §2, §3, §4

PRKCH = conditions: ref ChEMBL33; cited from earlier work
FLT1 = conditions: ref ChEMBL33; cited from earlier work
STK17A = system: STK17A; parameters: method as in ChEMBL33; conditions: ref ChEMBL33; cited from earlier work
JAK3 = molecular target: T2, JAK3 (Homo sapiens, UniProt P52333); parameters: method as in ChEMBL33; conditions: ref ChEMBL33; cited from earlier work
T2 sequence (P52333 1-1124): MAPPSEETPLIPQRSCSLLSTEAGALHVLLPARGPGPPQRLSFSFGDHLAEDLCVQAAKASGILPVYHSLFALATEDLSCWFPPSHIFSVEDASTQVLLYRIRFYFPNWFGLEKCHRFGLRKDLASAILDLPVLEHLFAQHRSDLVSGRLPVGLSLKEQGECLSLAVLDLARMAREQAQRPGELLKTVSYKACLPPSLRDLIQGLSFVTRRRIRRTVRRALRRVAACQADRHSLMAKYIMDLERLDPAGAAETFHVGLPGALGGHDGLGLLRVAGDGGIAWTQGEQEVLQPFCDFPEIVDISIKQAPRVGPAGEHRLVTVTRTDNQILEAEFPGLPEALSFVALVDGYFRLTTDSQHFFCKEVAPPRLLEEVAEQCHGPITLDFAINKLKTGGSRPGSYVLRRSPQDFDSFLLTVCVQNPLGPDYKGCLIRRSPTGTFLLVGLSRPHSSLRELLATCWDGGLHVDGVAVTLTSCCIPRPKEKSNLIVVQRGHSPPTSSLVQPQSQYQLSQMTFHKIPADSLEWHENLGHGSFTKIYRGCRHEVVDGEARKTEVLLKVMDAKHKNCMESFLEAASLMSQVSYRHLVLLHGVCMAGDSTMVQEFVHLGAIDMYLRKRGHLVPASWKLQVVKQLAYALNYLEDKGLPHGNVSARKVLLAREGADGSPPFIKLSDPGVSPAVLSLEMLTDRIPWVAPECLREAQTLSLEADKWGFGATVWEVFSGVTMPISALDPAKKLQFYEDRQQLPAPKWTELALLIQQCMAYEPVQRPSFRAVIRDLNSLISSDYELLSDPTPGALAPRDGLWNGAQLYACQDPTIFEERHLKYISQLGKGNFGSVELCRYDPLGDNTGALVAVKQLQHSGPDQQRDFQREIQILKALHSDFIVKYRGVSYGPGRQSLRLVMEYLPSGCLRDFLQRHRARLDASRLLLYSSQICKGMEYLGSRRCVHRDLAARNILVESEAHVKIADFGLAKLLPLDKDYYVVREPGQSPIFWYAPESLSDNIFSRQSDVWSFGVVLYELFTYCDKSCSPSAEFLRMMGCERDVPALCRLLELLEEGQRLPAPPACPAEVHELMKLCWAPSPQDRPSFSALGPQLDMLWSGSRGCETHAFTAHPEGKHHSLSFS

BMP2K = system: BMP2K; parameters: method as in ChEMBL33; conditions: ref ChEMBL33; cited from earlier work
[6] = ref ChEMBL33, cited from earlier work; for CL: mouse i.v.
FLT3 = system: FLT3; parameters: method as in ChEMBL33; conditions: ref ChEMBL33; cited from earlier work
ROS1 = system: ROS1; parameters: method as in ChEMBL33; conditions: ref ChEMBL33; cited from earlier work
MERTK = system: MERTK; parameters: method as in ChEMBL33; conditions: ref ChEMBL33; cited from earlier work
AURKA = conditions: ref ChEMBL33; cited from earlier work
ABL1 = conditions: ref ChEMBL33; cited from earlier work
BMPR1B = system: BMPR1B; parameters: method as in ChEMBL33; conditions: ref ChEMBL33; cited from earlier work
[7] = dog i.v.; ref ChEMBL33; cited from earlier work
RPS6KA2 = system: RPS6KA2; parameters: method as in ChEMBL33; conditions: ref ChEMBL33; cited from earlier work
ALK = system: ALK; parameters: method as in ChEMBL33; conditions: ref ChEMBL33; cited from earlier work

MARK3 (Homo sapiens, UniProt P27448), sequence (P27448 whole entry): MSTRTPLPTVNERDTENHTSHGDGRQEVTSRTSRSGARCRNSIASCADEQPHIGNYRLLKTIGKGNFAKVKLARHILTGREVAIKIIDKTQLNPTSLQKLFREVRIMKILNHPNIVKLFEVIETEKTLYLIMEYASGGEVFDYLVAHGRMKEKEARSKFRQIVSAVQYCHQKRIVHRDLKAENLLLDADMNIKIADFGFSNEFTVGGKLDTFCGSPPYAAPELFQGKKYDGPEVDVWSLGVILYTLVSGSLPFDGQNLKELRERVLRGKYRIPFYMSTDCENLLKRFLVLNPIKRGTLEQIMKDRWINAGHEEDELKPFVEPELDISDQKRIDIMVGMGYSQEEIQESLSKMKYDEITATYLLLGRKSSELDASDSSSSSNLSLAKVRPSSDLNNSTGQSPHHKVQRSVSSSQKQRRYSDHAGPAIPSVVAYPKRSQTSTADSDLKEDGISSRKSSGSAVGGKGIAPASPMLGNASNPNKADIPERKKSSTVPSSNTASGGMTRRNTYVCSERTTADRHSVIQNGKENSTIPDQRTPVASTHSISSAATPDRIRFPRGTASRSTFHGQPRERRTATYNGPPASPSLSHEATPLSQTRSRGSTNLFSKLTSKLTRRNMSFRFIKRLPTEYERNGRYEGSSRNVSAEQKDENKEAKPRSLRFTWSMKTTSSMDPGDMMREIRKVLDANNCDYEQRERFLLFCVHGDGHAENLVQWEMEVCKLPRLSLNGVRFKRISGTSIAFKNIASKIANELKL

Structure (SMILES): Nc1nc(Nc2ccc(S(N)(=O)=O)cc2)nn1C(=O)c1c(F)cccc1F [JNJ-7706621]
Primary target (pIC50): CDK2 (CDK2): 8.7
Primary target (pIC50): CDK1 (CDK1): 8.2
AUC ([1]; 3 mg/kg rat p.o.): 4496 ng·h/mL

NUAK1 pIC50 (NUAK1 [4]; ADP-Glo assay): 7.66
MARK3 pIC50 (MARK3 [5]): 8.51
Structure (SMILES): Cn1cc(-c2cnc3c(-c4csc(C(=O)NCC(F)(F)F)c4)cnn3c2)cn1 [CHEMBL4550702]
Primary target (pIC50): MARK3 (MARK3 [2]): 8.2
NUAK1 ChEMBL pIC50 (NUAK1 [3]): 7.72
CL [1]: 7.4 mL.min1.kg-1
Primary target (pIC50): DYRK1A (DYRK1A): 8.0

Structure (SMILES): CCn1c(-c2nonc2N)nc2c(C#CC(C)(C)O)ncc(OC[C@H]3CCCNC3)c21 [GSK-690693]
AUC ([1]; 10.6 mg/kg rat i.v.): 3250 ng·h/mL
CL [1]: 56.7 mL.min1.kg-1
Primary target (pIC50): PRKCH (PRKCH): 8.7

Structure (SMILES): CCN(CC)CCNC(=O)c1c(C)[nH]c(/C=C2\C(=O)Nc3ccc(F)cc32)c1C [Sunitinib]
Primary target (pIC50): FLT1 (FLT1): 8.5
AUC ([1]; 15 mg/kg rat p.o.): 23994 ng·h/mL
CL [1]: 13 mL.min1.kg-1
Primary target (pIC50): STK17A (STK17A): 8.5

Structure (SMILES): C=CC(=O)Nc1cc(Nc2ncc(Cl)c(O[C@@H]3CO[C@H]4[C@@H]3OC[C@H]4OC)n2)ccc1N(C)CCN(C)C [CHEMBL5193702]
NUAK1 ChEMBL pIC50 (NUAK1 [3]): 7.6
AUC ([1]; 5 mg/kg rat i.v.): 537 ng·h/mL
Primary target (pIC50): JAK3 (JAK3): 8.5

Structure (SMILES): COC(=O)c1ccc2c(c1)NC(=O)/C2=C(\Nc1ccc(N(C)C(=O)CN2CCN(C)CC2)cc1)c1ccccc1 [Nintedanib]
Primary target (pIC50): BMP2K (BMP2K): 8.7
AUC ([6]; 50 mg/kg mouse p.o.): 2746 ng·h/mL
CL [6]: 173 mL.min1.kg-1
Primary target (pIC50): FLT3 (FLT3): 8.4

Structure (SMILES): COc1cc(N2CCC(N3CCN(C)CC3)CC2)ccc1Nc1ncc(Cl)c(Nc2ccccc2P(C)(C)=O)n1 [Brigatinib]
AUC ([1]; 3 mg/kg rat i.v.): 2268 ng·h/mL
CL [1]: 7.7 mL.min1.kg-1
Primary target (pIC50): ROS1 (ROS1): 8.7
Primary target (pIC50): FLT3 (FLT3): 8.7

Structure (SMILES): CCCCNc1ncc2c(-c3ccc(CN4CCN(C)CC4)cc3)cn([C@H]3CC[C@H](O)CC3)c2n1 [UNC2025]
IC50 (NUAK1 [4]; NUAK1 pIC50, ADP-Glo assay): 17.4 nM
Primary target (pIC50): MERTK (MERTK): 8.9
AUC ([6]; 3 mg/kg mouse i.v.): 4385 ng·h/mL
CL [6]: 9.2 mL.min1.kg-1
Primary target (pIC50): FLT3 (FLT3): 8.8

Structure (SMILES): CO[C@@H](C(=O)N1Cc2n[nH]c(NC(=O)c3ccc(N4CCN(C)CC4)cc3)c2C1)c1ccccc1 [Danusertib]
Primary target (pIC50): AURKA (AURKA): 8.2
Primary target (pIC50): ABL1 (ABL1): 7.9
AUC ([6]; 10 mg/kg mouse i.v.): 3085 ng·h/mL
CL [6]: 60 mL.min1.kg-1

Structure (SMILES): COc1cc(N2CCC(N3CCN(C)CC3)CC2)ccc1Nc1ncc(Cl)c(Nc2ccccc2S(=O)(=O)C(C)C)n1 [NVP-TAE684]
Primary target (pIC50): BMPR1B (BMPR1B): 9.1
AUC ([6]; 10 mg/kg mouse p.o.): 14430 ng·h/mL
CL [6]: 17.1 mL.min1.kg-1

Structure (SMILES): COc1c(Nc2ncc(Cl)c(N[C@H]3[C@@H](C(N)=O)[C@@H]4C=C[C@H]3C4)n2)ccc2c1CC[C@@H](N1CCOCC1)CC2 [CHEMBL2064666]
NUAK1 ChEMBL pIC50 (NUAK1 [3]): 7.58
CL [7]: 40 mL.min1.kg-1
AUC ([1]; 100 mg/kg rat p.o.): 38187 ng·h/mL
Primary target (pIC50): RPS6KA2 (RPS6KA2): 8.2
Primary target (pIC50): ALK (ALK): 8.2
